How the values were obtained:
HCT116 WT cells = experiment: HCT116 WT cell proliferation / viability (CellTiter-Glo, 6 days); type: cell-based; details: Homo sapiens, HCT-116, 144 h, HCT116 WT cells, 6 days, CellTiter-Glo; read-out: HCT-116 WT IC50
Summary of the method: (§1)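 Viability read by CellTiter-Glo after 6-day compound exposure of MTAP-null and wild-type HCT116 cells grown in RPMI 1640 with 10% FBS. Dosing used 1:3 steps from 1 or 10 μM (8-9 points) or 1:2 steps from 10 or 50 μM (22 points); IC50 taken where fitted curve crosses 50% of control.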

HCT116 MTAP null cells = experiment: HCT116 MTAP null cell proliferation / viability (CellTiter-Glo, 6 days); type: cell-based; details: HCT116-MTAP null, 144 h, HCT116 MTAP null cells, 6 days, CellTiter-Glo; read-out: HCT-116 MTAP null IC50
Summary of the method: as §1

SMILES: CO[C@H]1COCC[C@@H]1N(Cc1ccc(C(F)(F)F)cn1)C(=O)c1ccc2nc(N)c3c(c2c1)COC3C (stereo partly drawn) [Example 903, 4-amino-N-((3R,4S)-3-methoxytetrahydro-2H-pyran-4-yl)-3-methyl-N-((5-(trifluoromethyl)pyridin-2-yl)methyl)-1,3-dihydrofuro[3,4-c]quinoline-8-carboxamide]
- IC50 (HCT116 WT cells): 4 µM
- IC50 (HCT116 MTAP null cells): 58 nM

SMILES: CN(Cc1ccc(C(F)(F)F)cn1)C(=O)c1cc2c3c(c(N)nc2cc1C(F)(F)F)COC3 [Example 572, 4-amino-N-methyl-7-(trifluoromethyl)-N-((5-(trifluoromethyl)-2-pyridinyl)methyl)-1,3-dihydrofuro[3,4-c]quinoline-8-carboxamide]
- IC50 (HCT116 WT cells): > 50 µM
- IC50 (HCT116 MTAP null cells): 939 nM

SMILES: C[C@H](c1ncccc1F)N(Cc1ccc(C(F)(F)F)nn1)C(=O)c1cnc2nc(N)c3c(c2c1)CCC3 [Example 628, 6-amino-N-((1R)-1-(3-fluoro-2-pyridinyl)ethyl)-N-((6-(trifluoromethyl)-3-pyridazinyl)methyl)-8,9-dihydro-7H-cyclopenta[c][1,8]naphthyridine-2-carboxamide]
- IC50 (HCT116 WT cells): 1.19 µM
- IC50 (HCT116 MTAP null cells): 119 nM

SMILES: CCN(C(=O)c1cc2c(cc1F)nc(N)c1cnn(C)c12)[C@@H](C)c1ccc(F)cn1 (single isomer, unassigned) [Example 876]
- IC50 (HCT116 WT cells): 30.4 µM
- IC50 (HCT116 MTAP null cells): 334 nM

SMILES: CC(C)CN(Cc1ccc(C(F)(F)F)cn1)C(=O)c1ccc2nc(N)c3c(c2c1)CCC3 [Example 611, 4-amino-N-(2-methylpropyl)-N-((5-(trifluoromethyl)-2-pyridinyl)methyl)-2,3-dihydro-1H-cyclopenta[c]quinoline-8-carboxamide]
- IC50 (HCT116 WT cells): 0.474 µM
- IC50 (HCT116 MTAP null cells): 84 nM

SMILES: CCN(C(=O)c1ccc2nc(N)c3c(c2c1)CO[C@@H]3C)[C@H](C)c1ccc(C(F)(F)F)nn1 [Example 778, (3R)-4-amino-N-ethyl-3-methyl-N-((1R)-1-(6-(trifluoromethyl)-3-pyridazinyl)ethyl)-1,3-dihydrofuro[3,4-c]quinoline-8-carboxamide]
- IC50 (HCT116 WT cells): 2.66 µM
- IC50 (HCT116 MTAP null cells): 49 nM

SMILES: Nc1nc2ccc(C(=O)N(Cc3ccc(C(F)(F)F)nn3)C3CC(F)(F)C3)cc2c2c1COC2 [Example 660, 4-amino-N-(3,3-difluorocyclobutyl)-N-((6-(trifluoromethyl)-3-pyridazinyl)methyl)-1,3-dihydrofuro[3,4-c]quinoline-8-carboxamide]
- IC50 (HCT116 WT cells): > 10 µM
- IC50 (HCT116 MTAP null cells): 354 nM

SMILES: N#Cc1ccc(CN(C(=O)c2cc3c4c(c(N)nc3cc2Cl)COC4)C2CC2)nc1 [Example 461, 4-amino-7-chloro-N-((5-cyano-2-pyridinyl)methyl)-N-cyclopropyl-1,3-dihydrofuro[3,4-c]quinoline-8-carboxamide]
- IC50 (HCT116 WT cells): 4.5 µM
- IC50 (HCT116 MTAP null cells): 69 nM

SMILES: CN(Cc1ccc(C(F)(F)F)cn1)C(=O)c1cc2c3c(c(N)nc2cn1)COC3 [Example 344, 4-amino-N-methyl-N-((5-(trifluoromethyl)-2-pyridinyl)methyl)-1,3-dihydrofuro[3,4-c][1,7]naphthyridine-8-carboxamide]
- IC50 (HCT116 WT cells): > 10 µM
- IC50 (HCT116 MTAP null cells): 244 nM

SMILES: Cn1cc(N(Cc2ccc(C(F)F)cn2)C(=O)c2cc3c4c(c(N)nc3cn2)CCC4)cn1 [Example 493, 6-amino-N-((5-(difluoromethyl)-2-pyridinyl)methyl)-N-(1-methyl-1H-pyrazol-4-yl)-8,9-dihydro-7H-cyclopenta[c][1,7]naphthyridine-2-carboxamide]
- IC50 (HCT116 WT cells): 1.17 µM
- IC50 (HCT116 MTAP null cells): 124 nM

SMILES: Nc1nc2cc(Cl)c(C(=O)N(Cc3ccc(C(F)(F)F)nn3)C3CC3)cc2c2c1COC2 [Example 490, 4-amino-7-chloro-N-cyclopropyl-N-((6-(trifluoromethyl)-3-pyridazinyl)methyl)-1,3-dihydrofuro[3,4-c]quinoline-8-carboxamide]
- IC50 (HCT116 WT cells): 3.48 µM
- IC50 (HCT116 MTAP null cells): 87 nM

Reference: patent US20240101570A1 (AMGEN INC., priority 2020, published 2024)
